Source: patent US9932341B2, “Use of pyrazolopyrimidine derivatives for the treatment of PI3K-delta related disorders” (Incyte Corporation, priority 2013, dated 2018)

These compounds were tested against PI3Kδ (p110δ/p85α) (Homo sapiens (Human), UniProt O00329) (assay: PI3Kδ Scintillation Proximity Assay (Example A3)). Conditions: 20 μM ATP, 20 μM PIP2, 4 nM PI3Kδ, read-out: PI3Kδ SPA IC50.
Format: biochemical
Method: [γ-^33P]ATP (10 mCi/mL) was purchased from PerkinElmer (Waltham, Mass.). […] PI3Kδ (p110δ/p85α) was purchased from Millipore (Bedford, Mass.). ATP, MgCl2, DTT, EDTA, MOPS and CHAPS were purchased from Sigma-Aldrich (St. Louis, Mo.). Wheat Germ Agglutinin (WGA) YSi SPA Scintillation Beads was purchased from GE healthcare life sciences (Piscataway, N.J.).
The kinase reaction was conducted in polystyrene 384-well matrix white plate from Thermo Fisher Scientific in a final volume of 25 μL. Inhibitors were first diluted serially in DMSO and added to the plate wells before the addition of other reaction components. The final concentration of DMSO in the assay was 0.5%. The PI3K assays were carried out at room temperature in 20 mM MOPS, pH 6.7, 10 mM MgCl2, 5 mM DTT and CHAPS 0.03%. Reactions were initiated by the addition of ATP, the final reaction mixture consisted of 20 μM PIP2, 20 μM ATP, 0.2 μCi [γ-^33P] ATP, 4 nM PI3Kδ. […] 25 mM EDTA, 400 μM ATP. The final concentration of SPA beads was 1.0 mg/mL. After the plate sealing, plates were shaken overnight at room temperature and centrifuged at 1800 rpm for 10 minutes, the radioactivity of the product was determined by scintillation counting on Topcount (PerkinElmer). IC50 determination was performed by fitting the curve of percent control activity versus the log of the inhibitor concentration using the GraphPad Prism 3.0 software.

Sequence of PI3Kδ (p110δ/p85α) (O00329 whole entry): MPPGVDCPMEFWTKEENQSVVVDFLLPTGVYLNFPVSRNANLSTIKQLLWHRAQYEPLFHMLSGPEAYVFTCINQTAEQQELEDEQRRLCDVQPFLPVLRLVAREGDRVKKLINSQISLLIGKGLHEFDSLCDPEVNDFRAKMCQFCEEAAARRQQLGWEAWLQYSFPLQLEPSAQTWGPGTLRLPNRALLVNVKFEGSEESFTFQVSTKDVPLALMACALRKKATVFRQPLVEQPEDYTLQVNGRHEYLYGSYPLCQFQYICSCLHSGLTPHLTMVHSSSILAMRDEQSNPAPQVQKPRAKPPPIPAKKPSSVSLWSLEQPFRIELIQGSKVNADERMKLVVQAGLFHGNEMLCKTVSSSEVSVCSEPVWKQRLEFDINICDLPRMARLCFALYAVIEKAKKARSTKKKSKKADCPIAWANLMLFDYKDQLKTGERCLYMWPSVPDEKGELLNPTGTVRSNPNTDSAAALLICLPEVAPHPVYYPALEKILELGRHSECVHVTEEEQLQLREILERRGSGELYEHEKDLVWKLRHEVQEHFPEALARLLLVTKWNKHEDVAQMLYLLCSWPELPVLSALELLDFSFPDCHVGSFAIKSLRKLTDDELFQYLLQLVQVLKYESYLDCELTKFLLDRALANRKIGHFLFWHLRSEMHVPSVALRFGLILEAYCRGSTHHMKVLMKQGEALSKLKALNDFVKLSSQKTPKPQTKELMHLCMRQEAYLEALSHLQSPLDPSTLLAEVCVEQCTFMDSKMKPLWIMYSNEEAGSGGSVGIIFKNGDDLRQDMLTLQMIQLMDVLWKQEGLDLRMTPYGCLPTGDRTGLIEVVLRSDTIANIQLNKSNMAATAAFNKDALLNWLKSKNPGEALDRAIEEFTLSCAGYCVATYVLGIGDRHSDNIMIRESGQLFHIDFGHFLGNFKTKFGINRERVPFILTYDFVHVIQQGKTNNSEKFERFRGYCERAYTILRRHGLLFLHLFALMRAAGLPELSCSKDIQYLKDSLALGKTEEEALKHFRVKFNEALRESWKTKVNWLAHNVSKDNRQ
Sequence of PI3Kδ (p110δ/p85α) (P27986 whole entry partner): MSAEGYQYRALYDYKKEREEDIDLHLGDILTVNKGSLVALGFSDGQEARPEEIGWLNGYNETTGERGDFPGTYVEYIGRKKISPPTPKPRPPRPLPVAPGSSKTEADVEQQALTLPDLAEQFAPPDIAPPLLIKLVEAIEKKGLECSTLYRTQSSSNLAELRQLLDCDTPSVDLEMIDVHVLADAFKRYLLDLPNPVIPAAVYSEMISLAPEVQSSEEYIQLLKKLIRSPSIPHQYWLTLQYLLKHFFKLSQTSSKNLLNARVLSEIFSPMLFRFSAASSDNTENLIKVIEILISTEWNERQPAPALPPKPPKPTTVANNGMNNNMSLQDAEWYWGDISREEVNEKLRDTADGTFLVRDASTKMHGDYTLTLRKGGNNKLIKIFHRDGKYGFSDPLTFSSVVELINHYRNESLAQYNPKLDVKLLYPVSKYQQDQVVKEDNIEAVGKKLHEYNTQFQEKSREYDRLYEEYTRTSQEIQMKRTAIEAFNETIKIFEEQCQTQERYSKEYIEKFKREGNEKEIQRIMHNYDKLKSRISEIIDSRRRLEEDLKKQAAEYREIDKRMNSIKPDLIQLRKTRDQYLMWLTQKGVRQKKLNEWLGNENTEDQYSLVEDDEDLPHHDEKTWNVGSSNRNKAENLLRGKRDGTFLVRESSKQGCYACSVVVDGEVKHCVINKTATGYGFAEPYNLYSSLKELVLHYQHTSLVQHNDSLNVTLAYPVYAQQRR

Compound	IC50 [nM]
1-(1-(5-chloro-2-methoxy-4-methyl-3-(pyrimidin-5-yl)phenyl)ethyl)-3-methyl-1H-pyrazolo[3,4-d]pyrimidin-4-amine [Example 168]	< 10
COc1c(C(C)n2nc(C)c3c(N)ncnc32)cc(Cl)c(C)c1C1CN(CC2CC2)C1 (racemic) [Example 4, 1-(1-{5-Chloro-3-[1-(cyclopropylmethyl)azetidin-3-yl]-2-methoxy-4-methylphenyl}ethyl)-3-methyl-1H-pyrazolo[3,4-d]pyrimidin-4-amine bis(trifluoroacetate)]	< 10
COc1c(C(C)n2nc(C)c3c(N)ncnc32)cc(Cl)c(C)c1C1CN(C)C1 (racemic) [Example 5, 1-{1-[5-chloro-2-methoxy-4-methyl-3-(1-methylazetidin-3-yl)phenyl]ethyl}-3-methyl-1H-pyrazolo[3,4-d]pyrimidin-4-amine]	< 10
CCN1CC(c2c(C)c(Cl)cc(C(C)n3nc(C)c4c(N)ncnc43)c2OC)C1 (racemic) [Example 6, 1-{1-[5-Chloro-3-(1-ethylazetidin-3-yl)-2-methoxy-4-methylphenyl]ethyl}-3-methyl-1H-pyrazolo[3,4-d]pyrimidin-4-amine]	< 10
COc1c(C(C)n2nc(C)c3c(N)ncnc32)cc(Cl)c(C)c1C1CN(CC(C)C)C1 (racemic) [Example 7, 1-{1-[5-Chloro-3-(1-isobutylazetidin-3-yl)-2-methoxy-4-methylphenyl]ethyl}-3-methyl-1H-pyrazolo[3,4-d]pyrimidin-4-amine]	< 10
COCCN1CC(c2c(C)c(Cl)cc(C(C)n3nc(C)c4c(N)ncnc43)c2OC)C1 (racemic) [Example 9, 1-(1-{5-Chloro-2-methoxy-3-[1-(2-methoxyethyl)azetidin-3-yl]-4-methylphenyl}ethyl)-3-methyl-1H-pyrazolo[3,4-d]pyrimidin-4-amine]	< 10
CNC(=O)N1CC(c2c(C)c(Cl)cc(C(C)n3nc(C)c4c(N)ncnc43)c2OC)C1 (racemic) [Example 10, 3-{3-[1-(4-Amino-3-methyl-1H-pyrazolo[3,4-d]pyrimidin-1-yl)ethyl]-5-chloro-2-methoxy-6-methylphenyl}-N-methylazetidine-1-carboxamide]	< 10
CNC(=O)c1cc(-c2c(C)c(Cl)cc(C(C)n3nc(C)c4c(N)ncnc43)c2OC)ccn1 (racemic) [Example 17, 4-(3-(1-(4-amino-3-methyl-1H-pyrazolo[3,4-c]pyrimidin-1-yl)ethyl)-5-chloro-2-methoxy-6-methylphenyl)-N-methylpicolinamide]	< 10
COc1c(C(C)n2nc(C)c3c(N)ncnc32)cc(Cl)c(C)c1-c1ccnc(C(=O)NCCO)c1 (racemic) [Example 18, 4-{3-[1-(4-Amino-3-methyl-1H-pyrazolo[3,4-d]pyrimidin-1-yl)ethyl]-5-chloro-2-methoxy-6-methylphenyl}-N-(2-hydroxyethyl)pyridine-2-carboxamide]	< 10
COc1c(C(C)n2nc(C)c3c(N)ncnc32)cc(Cl)c(C)c1-c1cnn(CCO)c1 (single isomer, unassigned) [20 (1st peak), 2-(4-(3-(1-(4-Amino-3-methyl-1H-pyrazolo[3,4-d]pyrimidin-1-yl)ethyl)-5-chloro-2-methoxy-6-methylphenyl)-1H-pyrazol-1-yl)ethanol]	< 10
CCOc1c(C(C)n2nc(C)c3c(N)ncnc32)cc(C)c(C#N)c1C1CN(C(=O)C(C)(C)O)C1 (single isomer, unassigned) [322 (1st peak), 4-[1-(4-amino-3-methyl-1H-pyrazolo[3,4-d]pyrimidin-1-yl)ethyl]-3-ethoxy-2-[1-(2-hydroxy-2-methylpropanoyl)azetidin-3-yl]-6-methylbenzonitrile]	< 10
COc1c(C(C)n2nc(C)c3c(N)ncnc32)cc(Cl)c(C)c1C1CNC(=O)CO1 (single isomer, unassigned) [324 (2nd peak), 6-{3-[1-(4-Amino-3-methyl-1H-pyrazolo[3,4-d]pyrimidin-1-yl)ethyl]-5-chloro-2-methoxy-6-methylphenyl}morpholin-3-one]	< 10
COc1c(C(C)n2nc(C)c3c(N)ncnc32)cc(Cl)c(C)c1C1CN(C(C)C)C1 (single isomer, unassigned) [Example 1, 1-{1-[5-Chloro-3-(1-isopropylazetidin-3-yl)-2-methoxy-4-methylphenyl]ethyl}-3-methyl-1H-pyrazolo[3,4-d]pyrimidin-4-amine bis(trifluoroacetate)]	< 10

The remaining lines, values ahead:

IC50 [nM]	Compound
< 10	COc1c(C(C)n2nc(C)c3c(N)ncnc32)cc(Cl)c(C)c1-c1ccnc(C(=O)N(C)CCO)c1 (racemic) [Example 19, 4-{3-[1-(4-amino-3-methyl-1H-pyrazolo[3,4-d]pyrimidin-1-yl)ethyl]-5-chloro-2-methoxy-6-methylphenyl}-N-(2-hydroxyethyl)-N-methylpyridine-2-carboxamide]
< 10	CCOc1c(C(C)n2nc(C)c3c(N)ncnc32)cc(Cl)c(C#N)c1-c1cncc(S(C)(=O)=O)c1 (racemic) [Example 43, 4-[1-(4-amino-3-methyl-1H-pyrazolo[3,4-d]pyrimidin-1-yl)ethyl]-6-chloro-3-ethoxy-2-[5-(methylsulfonyl)pyridin-3-yl]benzonitrile]
< 10	CCOc1c(C(C)n2nc(C)c3c(N)ncnc32)cc(Cl)c(C#N)c1-c1ccc(C(=O)N(C)C)nc1 (racemic) [Example 44, 5-(3-(1-(4-amino-3-methyl-1H-pyrazolo[3,4-d]pyrimidin-1-yl)ethyl)-5-chloro-6-cyano-2-ethoxyphenyl)-N,N-dimethylpicolinamide]
< 10	COc1c(C(C)n2nc(C)c3c(N)ncnc32)cc(Cl)c(F)c1C1CN(CCO)C1 (racemic) [Example 71, 2-(3-{3-[1-(4-Amino-3-methyl-1H-pyrazolo[3,4-d]pyrimidin-1-yl)ethyl]-5-chloro-6-fluoro-2-methoxyphenyl}azetidin-1-yl)ethanol]
< 10	CCOc1c(C(C)n2nc(C)c3c(N)ncnc32)cc(Cl)c(C)c1C1CN(CCO)C1 (racemic) [Example 95, 2-(3-{3-[1-(4-Amino-3-methyl-1H-pyrazolo[3,4-d]pyrimidin-1-yl)ethyl]-5-chloro-2-ethoxy-6-methylphenyl}azetidin-1-yl)ethanol bis(trifluoroacetate)]
< 10	CCOc1c(C(C)n2nc(C)c3c(N)ncnc32)cc(Cl)c(F)c1C1CN(CC(C)(C)O)C1 (racemic) [Example 140, 1-(3-{3-[1-(4-Amino-3-methyl-1H-pyrazolo[3,4-d]pyrimidin-1-yl)ethyl]-5-chloro-2-ethoxy-6-fluorophenyl}azetidin-1-yl)-2-methylpropan-2-ol]
< 10	CCOc1c(C(C)n2nc(C)c3c(N)ncnc32)cc(Cl)c(F)c1C1CN(CC(F)(F)F)C1 (racemic) [Example 141, 1-(1-{5-Chloro-2-ethoxy-4-fluoro-3-[1-(2,2,2-trifluoroethyl)azetidin-3-yl]phenyl}ethyl)-3-methyl-1H-pyrazolo[3,4-d]pyrimidin-4-amine]
< 10	COc1c(C(C)n2nc(C)c3c(N)ncnc32)cc(Cl)c(C)c1C1CCN(C)CC1 (racemic) [Example 163, 1-{1-[5-Chloro-2-methoxy-4-methyl-3-(1-methylpiperidin-4-yl)phenyl]ethyl}-3-methyl-1H-pyrazolo[3,4-d]pyrimidin-4-amine]
< 10	COc1c(C(C)n2nc(C)c3c(N)ncnc32)cc(Cl)c(C)c1C1CCN(CC(C)(C)O)CC1 (racemic) [Example 164, 1-(4-{3-[1-(4-Amino-3-methyl-1H-pyrazolo[3,4-d]pyrimidin-1-yl)ethyl]-5-chloro-2-methoxy-6-methylphenyl}piperidin-1-yl)-2-methylpropan-2-ol]
< 10	CCOc1c(C(C)n2nc(C)c3c(N)ncnc32)cc(Cl)c(C#N)c1-c1ccc(C(C)(C)O)nc1 (racemic) [Example 316, 4-[1-(4-amino-3-methyl-1H-pyrazolo[3,4-d]pyrimidin-1-yl)ethyl]-6-chloro-3-ethoxy-2-[6-(1-hydroxy-1-methylethyl)pyridin-3-yl]benzonitrile]
< 10	CCOc1c(C(C)n2nc(C)c3c(N)ncnc32)cc(Cl)c(C#N)c1N1CCCC1 (racemic) [Example 318, 4-[1-(4-amino-3-methyl-1H-pyrazolo[3,4-d]pyrimidin-1-yl)ethyl]-6-chloro-3-ethoxy-2-pyrrolidin-1-ylbenzo nitrile]
< 10	CCOc1c(C(C)n2nc(C)c3c(N)ncnc32)cc(Cl)c(C#N)c1N1CC(OC)C1 (racemic) [Example 319, 4-[1-(4-amino-3-methyl-1H-pyrazolo[3,4-d]pyrimidin-1-yl)ethyl]-6-chloro-3-ethoxy-2-(3-methoxyazetidin-1-yl)benzonitrile]
< 10	CCOc1c(C(C)n2nc(C)c3c(N)ncnc32)cc(C)c(C#N)c1C1CN(C(C)C)C1 (racemic) [Example 320, 4-[1-(4-amino-3-methyl-1H-pyrazolo[3,4-d]pyrimidin-1-yl)ethyl]-3-ethoxy-2-(1-isopropylazetidin-3-yl)-6-methylbenzonitrile]
